# Source: patent publication US20030027981A1, “Urokinase-type plasminogen activator receptor” (priority 1989, published 2003)
# B1: plasmin: human plasmin (Kabi Diagnostica) (protein, UniProt P00747 20-580; P00747 581-810, looked up)
# Plasmin heavy chain A: EPLDDYVNTQGASLFSVTKKQLGAGSIEECAAKCEEDEEFTCRAFQYHSKEQQCVIMAENRKSSIIIRMRDVVLFEKKVYLSECKTGNGKNYRGTMSKTKNGITCQKWSSTSPHRPRFSPATHPSEGLEENYCRNPDNDPQGPWCYTTDPEKRYDYCDILECEEECMHCSGENYDGKISKTMSGLECQAWDSQSPHAHGYIPSKFPNKNLKKNYCRNPDRELRPWCFTTDPNKRWELCDIPRCTTPPPSSGPTYQCLKGTGENYRGNVAVTVSGHTCQHWSAQTPHTHNRTPENFPCKNLDENYCRNPDGKRAPWCHTTNSQVRWEYCKIPSCDSSPVSTEQLAPTAPPELTPVVQDCYHGDGQSYRGTSSTTTTGKKCQSWSSMTPHRHQKTPENYPNAGLTMNYCRNPDADKGPWCFTTDPSVRWEYCNLKKCSGTEASVVAPPPVVLLPDVETPSEEDCMFGNGKGYRGKRATTVTGTPCQDWAAQEPHRHSIFTPETNPRAGLEKNYCRNPDGDVGGPWCYTTNPRKLYDYCDVPQCAAPSFDCGKPQVEPKKCPGR
# Plasmin light chain B: VVGGCVAHPHSWPWQVSLRTRFGMHFCGGTLISPEWVLTAAHCLEKSPRPSSYKVILGAHQEVNLEPHVQEIEVSRLFLEPTRKDIALLKLSSPAVITDKVIPACLPSPNYVVADRTECFITGWGETQGTFGAGLLKEAQLPVIENKVCNRYEFLNGRVQSTELCAGHLAGGTDSCQGDSGGPLVCFEKDKYILQGVTSWGLGCARPNKPGVYVRVSRFVTWIEGVMRNN
# modifications: plasmin
# What was measured:
# u-PAR [1] = biological target: T1, u-PAR (Homo sapiens, UniProt Q03405); test: Release of 125I-labelled DFP-u-PA from PMA-stimulated U937 cells by phospholipases; assay type: cell-based; conditions: phospholipases >5 μg/ml, compared to blind sample
# u-PAR mRNA [2] = test: Northern blot of u-PAR mRNA in RD cells; assay type: cell-based, human; conditions: 48 hours, PMA 150 nM, mEGF 20 ng/ml, TGF-β1 7.5 ng/ml, dexamethasone 10^−6 M
# Procedure: (§1) The cells were seeded at 0.5×10^6/ml in DMEM and grown to confluence, washed in PBS^+ and kept under serum-free conditions for 48 hours followed by no additions (1, 6), by addition of Dex (10^−6M) (2, 7) PMA (150 nM) (3, 8) mEGF (20 ng/ml) (4, 9) and TGF-β1, (7.5 ng/ml) (5, 10) for 48 hours. After incubation, both the adherent and the non-adherent cells were collected, pooled, and total RNA was isolated as described in Materials and Methods. For the Northern blot analyses, 30 μg of total RNA were electrophoresed in 1.5% agarose gels under denaturing conditions and blotted onto a nitrocellulose filter. The filters were hybridized to a random primed labeled u-PAR cDNA probe. The positions of the ribosomal RNA in the Northern are indicated to the left.
# (§2) The human histiocytic lymphoma cell line U937 (American Type Culture Collection (ATCC), CRL 1593) was obtained from Dr. A. Fattorssi (Research Lab. of Aeronautica Militare, Rome, Italy) and cultured in RPMI 1640 medium with 10% heat inactivated fetal calf serum and 2 mM L-glutamine at a density of 0.5×10^6 cells/ml at the onset of the experiment. The medium was supplemented with 100 units/ml of penicillin and 25 ug/ml streptomycin. The human rhabdomyosarcoma (RD) and adenocarcinoma (A549) cell lines (ATCC CCL 136 and ATCC CCl 185, respectively) were obtained from Flow laboratories, Irvine, U.K., and kept in Dulbecco's modified Eagle's medium supplemented with 10% fetal calf serum until confluency, as described earlier (Lund et al., 1988). The cell lines were tested for and found free from Mycoplasma infection. PMA and the other compounds were present during different time periods and in varying concentrations, as indicated for each experiment. The adherent cells were released by a rubber policeman, and harvested for RNA analysis as described (Mayer et al., 1988).
# (§3) Total cellular RNA was isolated from the cells as described by Chomczynsky and Sacchi (1987). The RNA was analyzed by hybridizing Northern blots as described (Lund et al., 1987), except that random primed labelled plasmid probes were used. […]
# u-PAR [3] = test: u-PAR protein level in U937 cells by cross-linking of detergent phase to 125I-ATF; assay type: cell-based, human; conditions: increasing time of treatment, PMA 150 nM, dibuturyl cAMP 1 mM
# u-PAR mRNA [4] = test: Northern blot of u-PAR mRNA in A549 cells; assay type: cell-based, human; conditions: 48 hours, PMA 150 nM, mEGF 20 ng/ml, TGF-β1 7.5 ng/ml, dexamethasone 10^−6 M
# Procedure: as §1, §2, §3
# u-PAR mRNA [5] = test: Northern blot of u-PAR mRNA in U937 cells; assay type: cell-based, human; conditions: 150 nM PMA, time course
# Procedure: The cells were seeded at 0.5×10^6/ml in RPMI 1640 medium containing 10% FCS, and incubated with 150 nM PMA for the indicated number of hours. After the incubation both the adherent and the non-adherent cells were collected, pooled, and total RNA was isolated as described in Materials and Methods. For the Northern blot analyses, 30 μg of total RNA were electrophoresed in 1.5% agarose gels under denaturing conditions and blotted onto a nitrocellulose filter. The filters were hybridized to a random primed labelled u-PAR cDNA probe (A), or a β-actin cDNA probe (B). The positions of the ribosomal RNA in the Northern blot are indicated to the left.
# The human histiocytic lymphoma cell line U937 (American Type Culture Collection (ATCC), CRL 1593) was obtained from Dr. A. Fattorssi (Research Lab. of Aeronautica Militare, Rome, Italy) and cultured in RPMI 1640 medium with 10% heat inactivated fetal calf serum and 2 mM L-glutamine at a density of 0.5×10^6 cells/ml at the onset of the experiment. The medium was supplemented with 100 units/ml of penicillin and 25 ug/ml streptomycin. […]
# as §3
# u-PAR [6] = biological target: T1, u-PAR; test: Chemical cross-linking of 125I-ATF to purified u-PAR; assay type: binding; conditions: unlabelled reagent 100 nM, u-PAR approx. 1 nM, 125I-ATF approx. 1 nM
# Procedure: B) Affinity column eluate was diluted to yield an approximate concentration of u-PAR of 1 nM during the assay. The samples were preincubated alone (lane 2) or in the presence of the following unlabelled reagents at a concentration of 100 nM: bovine serum albumin (lane 3), t-PA (lane 4), plasminogen (lane 5), murine epidermal growth factor (lane 6), ATF (lane 7), active 54 kD u-PA (lane 8), DFP-inactivated 54 kD u-PA (lane 9). After preincubation for 15 min at room temperature, ^125I-labelled ATF (approximately 1 nM) was added, followed by incubation for 1 hour at 4° C. After incubation, chemical cross-linking was performed with DSS, after which the samples were analyzed by SDS-PACE on a 6-16% gradient gel under non-reducing conditions and autoradiography. […] Electrophoretic mobilities of molecular weight standard proteins are inducated (kD).
# Cross-linking of u-PAR in complex mixtures or purified fractions to ^125I-labelled ATF was performed as described for solubilized receptor (Nielsen et al., 1988), except that 2 mM disuccinimidylsuberate (DSS) was used for cross-linking. Cross-linking of purified u-PAR to DFP-treated u-PA for analysis by SDS-PAGE and silver-staining was performed in the same manner, except that non-labelled DFP-treated u-PA was used as the ligand.
# uPAR-bound u-PA = uPAR-bound u-PA (Homo sapiens, UniProt P00749); assay type: cell-based; conditions: peptide 0.5 mg/ml 30 minutes preincubation; PAI-1 0.9 or 4.5 nM
# Procedure: U937 cells were grown in suspension in RPMI 1640 medium supplemented with 5% heat-inactivated fetal calf serum. PMA-stimulation of U937 cells was performed at a cell density of […] cells/ml with 150 nM PMA for 4 days. The adherent cell population was harvested with a rubber scraper and resuspended in PBS. […] The effect of PAI's on the activity of cell-bound u-PA was determined by the addition of varying concentrations of PAI-1 (0.18-18.4 nM) or PAI-2 (1.13-56.7 nM) to the incubations at the same time as the addition of plasminogen. Curves were then constructed of plasmin concentration against time. […] [pln]∞ was calculated from the relationship: [[…]]0) equation.2 where Δ[pln]0 is the initial rate of plasmin generation which was determined in control incubations in the absence of inhibitors. […] Association rate constants (second-order rate constants) were calculated from the slope of the line of double reciprocal plots of kapp against inhibitor concentration.
# U937 cells = test: Fate of receptor-bound ligands on U937 cells (internalization and degradation); assay type: cell-based, human
# HT-1080 cells = test: Plasmin release from plasmin-loaded HT-1080 cells; assay type: cell-based, human
# Procedure: FIG. 24. Plasmin release from HT-1080 cells into serum-free and serum-containing media. Confluent layers of HT-1080 cells were first loaded with plasmin by incubation for 1 hour at 37° C. in serum-free MEM medium (0.5 ml) containing human plasmin (0-5 μg/ml). After rinsing the cell layers three times, they were incubated for 2 hours at 37° C. with either serum-free medium (∘ - - - ∘), medium containing 10% heat-inactivated and plasminogen-depleted fetal calf serum (● - - - ●), or the latter with tranexamic acid (100 μM) (▪ - - - ▪). Plasmin was then assayed in the cell-bound fraction (A) and the media (B). At the time of transfer to new media, there was approximately 28 ng of plasmin bound to the cells from the pretreatment with 2.5 μg of plasmin/well.
# In the Examples concerning plasmin binding to cells from medium, human plasmin (approximately 18 CU/mg; Kabi Diagnostica, Stockholm, Sweden) was added to the cultures at final concentrations of 0-5 μg/ml. The cells were incubated for 3 hours at 37° C. before assay of cell-bound and supernatant plasmin (see below). For plasmin release experiments, cells were loaded for 1 hour at 37° C. with 0-5 μg/ml plasmin in serum-free medium, then rinsed three times with MEM.
# Plasmin bound to the cell layer was recovered and assayed as follows. After harvest of culture medium, the cells were rinsed three times with PBS (plasmin assays of further rinses were negative); then the bound plasmin was specifically eluted (Miles, L. A., and E. F. Plow, “Binding and activation of plasminogen on the platelet surface”, J. Biol. Chem. 260: 4303-4311, 1985) with a solution of 1 mM tranexamic acid in the same rinsing solution (150 μl/well). Plasmin activity was assayed in eluate samples (50 μl) as above with an incubation time of 3 hours at 37° C. Tranexamic acid at 1 mM had no effect on the thioesterase activity of plasmin in these assays.
# cultured cells = conditions: plasmin, some cell types (Burtin and Fondaneche, 1988); cited from earlier work
molecule,measurement,setting,value
Trypsin,Liberation of 125I-labelled DFP-u-PA from the cell surface,u-PAR [1],efficiently released all cell surface associated radioactivity
"CCCCCCCCCCCCCC(=O)O[C@@H]1[C@@H](C)[C@@]2(O)[C@@H](C=C(CO)C[C@]3(O)C(=O)C(C)=C[C@@H]23)[C@@H]2C(C)(C)[C@]12OC(C)=O [PMA, Phorbol 12-myristate 13-acetate]",u-PAR mRNA level,u-PAR mRNA [2],increased
same,u-PAR protein level (signal of 125I-ATF cross-linked to u-PAR),u-PAR [3],increase in the strength of signal
same,u-PAR mRNA level,u-PAR mRNA [4],increased
same,u-PAR mRNA level,u-PAR mRNA [5],maximal effect after 24 hours
epidermal growth factor: murine epidermal growth factor,u-PAR mRNA level,u-PAR mRNA [2],increased
same,Competition for binding and cross-linking of 125I-labelled ATF to purified u-PAR,u-PAR [6],no competition
same,u-PAR mRNA level,u-PAR mRNA [4],increased
TGF-β1: porcine transforming growth factor β-type 1,u-PAR mRNA level,u-PAR mRNA [2],increased
same,u-PAR mRNA level,u-PAR mRNA [4],increased
bovine serum albumin: unrelated control protein,Competition for binding and cross-linking of 125I-labelled ATF to purified u-PAR,u-PAR [6],no competition
Gly-Arg-Gly-Asp-Ser (GRGDS; printed: Gly-Arg-Gly-Asp-Ser),Rates of inhibition of cell-bound u-PA by PAI-1 in the presence or absence of the peptide,uPAR-bound u-PA,the same
CCN(CC)CCCC(C)Nc1ccnc2cc(Cl)ccc12 (stereo not shown) [chloroquine],Degradation of u-PA:PAI-1 ligand,U937 cells,20%
t-PA: tissue-type plasminogen activator,Competition for binding and cross-linking of 125I-labelled ATF to purified u-PAR,u-PAR [6],no competition
B1,Plasmin activity recovered from the cells,"HT-1080 cells; 2 hours 37° C., 10% serum-containing medium",40%
same,Plasmin activity remaining bound to cells,"HT-1080 cells; 2 hours 37° C., fresh serum-free medium",approximately 40%
same,Plasmin activity detected in the medium,HT-1080 cells; serum-containing medium,about 11%
same,Plasmin activity detected in the medium,HT-1080 cells; serum-free medium,60%
same,Kd,cultured cells,50 nM
